Test results taken from US11117900B2 (Vertex Pharmaceuticals Incorporated, priority 2012, dated 2021).

Tested on: HCT116 colorectal cancer cells
Experiment: Cisplatin sensitization assay (96 h MTS cell viability);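 further: compound concentration needed to lower the IC50 of Cisplatin alone by a set fold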
Type: cell-based
Conditions: Cisplatin sensitization value
Method: Compounds can be screened for their ability to sensitize HCT116 colorectal cancer cells to Cisplatin using a 96 h cell viability (MTS) assay. […] Compounds and Cisplatin are then both added simultaneously to the cell media in 2-fold serial dilutions from a top final concentration of 10 μM as a full matrix of concentrations in a final cell volume of 200 μl, and the cells are then incubated at 37° C. in 5% CO2. After 96 h, 40 μl of MTS reagent (Promega G358a) is added to each well and the cells are incubated for 1 h at 37° C. in 5% CO2.
Compounds with a Cisplatin sensitization value of <0.02 μM are marked with “+++.” Compounds with a Cisplatin sensitization value >0.02 μM but <0.2 μM are marked with “++.” Compounds with a Cisplatin sensitization value >0.2 μM but <5 μM are marked with “+.”

Row | SMILES | Cisplatin Sensitization Assay
1 | COC1CN(C2CCN(c3ccncc3NC(=O)c3c(N)nn4cc(Cl)cnc34)CC2)C1 [I-N-107, 2-amino-6-chloro-N-(4-(4-(3-methoxyazetidin-1-yl)piperidin-1-yl)pyridin-3-yl)pyrazolo[1,5-a]pyrimidine-3-carboxamide] | +++ (Compounds with a Cisplatin sensitization value of <0.02 μM are marked with “+++.”)
2 | Cc1ncn(-c2ccncc2NC(=O)c2c(N)nn3cc(F)cnc23)n1 [I-N-161, 2-amino-6-fluoro-N-(4-(3-methyl-1H-1,2,4-triazol-1-yl)pyridin-3-yl)pyrazolo[1,5-a]pyrimidine-3-carboxamide] | + (Compounds with a Cisplatin sensitization value >0.2 μM but <5 μM are marked with “+.”)
3 | Nc1nn2cc(F)cnc2c1C(=O)Nc1cnccc1N1CCN(C2CC2)CC1 [I-N-33, 2-amino-N-(4-(4-cyclopropylpiperazin-1-yl)pyridin-3-yl)-6-fluoropyrazolo[1,5-a]pyrimidine-3-carboxamide] | + (Compounds with a Cisplatin sensitization value >0.2 μM but <5 μM are marked with “+.”)
4 | CN1CCC(S(=O)(=O)N2CCN(c3c(F)cncc3NC(=O)c3c(N)nn4cc(F)cnc34)CC2)CC1 [I-N-175, 2-amino-6-fluoro-N-(5-fluoro-4-(4-((1-methylpiperidin-4-yl)sulfonyl)piperazin-1-yl)pyridin-3-yl)pyrazolo[1,5-a]pyrimidine-3-carboxamide] | +++ (Compounds with a Cisplatin sensitization value of <0.02 μM are marked with “+++.”)
5 | CN(C)C1CCN(C2CCN(c3ccncc3NC(=O)c3c(N)nn4cc(Cl)cnc34)CC2)C1 (stereo not shown) [I-N-106, 2-amino-6-chloro-N-(4-(4-(3-(dimethylamino)pyrrolidin-1-yl)piperidin-1-yl)pyridin-3-yl)pyrazolo[1,5-a]pyrimidine-3-carboxamide] | +++ (Compounds with a Cisplatin sensitization value of <0.02 μM are marked with “+++.”)
6 | CN1CCN(C(=O)C2(C)CCN(c3c(F)cncc3NC(=O)c3c(N)nn4cc(F)cnc34)CC2)CC1 [I-G-54, 2-amino-6-fluoro-N-(5-fluoro-4-(4-methyl-4-(4-methylpiperazine-1-carbonyl)piperidin-1-yl)pyridin-3-yl)pyrazolo[1,5-a]pyrimidine-3-carboxamide] | +++ (Compounds with a Cisplatin sensitization value of <0.02 μM are marked with “+++.”)
7 | Nc1nn2cc(F)cnc2c1C(=O)Nc1cncc(F)c1N1CCN(C(=O)C2CNC2)CC1 [I-N-168, 2-amino-N-(4-(4-(azetidine-3-carbonyl)piperazin-1-yl)-5-fluoropyridin-3-yl)-6-fluoropyrazolo[1,5-a]pyrimidine-3-carboxamide] | + (Compounds with a Cisplatin sensitization value >0.2 μM but <5 μM are marked with “+.”)
8 | Nc1nn2cc(F)cnc2c1C(=O)Nc1cncc(F)c1N1CCN2C(=O)OC[C@@H]2C1 [I-N-248, (S)-2-amino-6-fluoro-N-(5-fluoro-4-(3-oxotetrahydro-1H-oxazolo[3,4-a]pyrazin-7(3H)-yl)pyridin-3-yl)pyrazolo[1,5-a]pyrimidine-3-carboxamide] | ++ (Compounds with a Cisplatin sensitization value >0.02 μM but <0.2 μM are marked with “++.”)
9 | Nc1nn2cc(F)cnc2c1C(=O)Nc1cnccc1C1CCOC1 (stereo not shown) [I-C-75, 2-amino-6-fluoro-N-(4-(tetrahydrofuran-3-yl)pyridin-3-yl)pyrazolo[1,5-a]pyrimidine-3-carboxamide] | ++ (Compounds with a Cisplatin sensitization value >0.02 μM but <0.2 μM are marked with “++.”)
10 | CN1CCC(c2ccncc2NC(=O)c2c(N)nn3cc(F)cnc23)CC1=O (stereo not shown) [I-C-73, 2-amino-6-fluoro-N-(4-(1-methyl-2-oxopiperidin-4-yl)pyridin-3-yl)pyrazolo[1,5-a]pyrimidine-3-carboxamide] | ++ (Compounds with a Cisplatin sensitization value >0.02 μM but <0.2 μM are marked with “++.”)
11 | Nc1nn2cc(Cl)cnc2c1C(=O)Nc1cnccc1OC1CCCOC1 (stereo not shown) [I-O-65, 2-amino-6-chloro-N-(4-((tetrahydro-2H-pyran-3-yl)oxy)pyridin-3-yl)pyrazolo[1,5-a]pyrimidine-3-carboxamide] | +++ (Compounds with a Cisplatin sensitization value of <0.02 μM are marked with “+++.”)
12 | Nc1nn2cc(F)cnc2c1C(=O)Nc1cncc(F)c1N1CCC(C(=O)N2CCN(C3CC3)CC2)CC1 [I-G-13, 2-amino-N-(4-(4-(4-cyclopropylpiperazine-1-carbonyl)piperidin-1-yl)-5-fluoropyridin-3-yl)-6-fluoropyrazolo[1,5-a]pyrimidine-3-carboxamide] | +++ (Compounds with a Cisplatin sensitization value of <0.02 μM are marked with “+++.”)
13 | CC(C)N1CCCC1C(=O)N1CCN(c2c(F)cncc2NC(=O)c2c(N)nn3cc(F)cnc23)CC1 (stereo not shown) [I-N-205, 2-amino-6-fluoro-N-(5-fluoro-4-(4-(1-isopropylpyrrolidine-2-carbonyl)piperazin-1-yl)pyridin-3-yl)pyrazolo[1,5-a]pyrimidine-3-carboxamide] | ++ (Compounds with a Cisplatin sensitization value >0.02 μM but <0.2 μM are marked with “++.”)
14 | CN1CCN(c2ccc(-c3ccncc3NC(=O)c3c(N)nn4cc(F)cnc34)cn2)CC1 [I-C-21, 2-amino-6-fluoro-N-(6-(4-methylpiperazin-1-yl)-[3,4′-bipyridin]-3′-yl)pyrazolo[1,5-a]pyrimidine-3-carboxamide] | +++ (Compounds with a Cisplatin sensitization value of <0.02 μM are marked with “+++.”)
15 | Cc1ncccc1-c1ccncc1NC(=O)c1c(N)nn2cc(F)cnc12 [I-C-20, 2-amino-6-fluoro-N-(2-methyl-[3,4′-bipyridin]-3′-yl)pyrazolo[1,5-a]pyrimidine-3-carboxamide] | +++ (Compounds with a Cisplatin sensitization value of <0.02 μM are marked with “+++.”)
16 | CN1CCN(S(=O)(=O)C2CCN(c3c(F)cncc3NC(=O)c3c(N)nn4cc(F)cnc34)CC2)CC1 [I-N-166, 2-amino-6-fluoro-N-(5-fluoro-4-(4-((4-methylpiperazin-1-yl)sulfonyl)piperidin-1-yl)pyridin-3-yl)pyrazolo[1,5-a]pyrimidine-3-carboxamide] | +++ (Compounds with a Cisplatin sensitization value of <0.02 μM are marked with “+++.”)
17 | COc1ccncc1NC(=O)c1c(N)nn2cc(C(C)C#N)cnc12 (stereo not shown) [I-O-21, 2-amino-6-(1-cyanoethyl)-N-(4-methoxypyridin-3-yl)pyrazolo[1,5-a]pyrimidine-3-carboxamide] | ++ (Compounds with a Cisplatin sensitization value >0.02 μM but <0.2 μM are marked with “++.”)
18 | Nc1nn2cc(F)cnc2c1C(=O)Nc1cncc(F)c1N1CCC(C(=O)N2CCN(C3CCC3)CC2)CC1 [I-G-35, 2-amino-N-(4-(4-(4-cyclobutylpiperazine-1-carbonyl)piperidin-1-yl)-5-fluoropyridin-3-yl)-6-fluoropyrazolo[1,5-a]pyrimidine-3-carboxamide] | +++ (Compounds with a Cisplatin sensitization value of <0.02 μM are marked with “+++.”)
19 | CN1CCN2CCN(c3ccncc3NC(=O)c3c(N)nn4cc(Cl)cnc34)CC2C1 (stereo not shown) [I-N-61, 2-amino-6-chloro-N-(4-(8-methylhexahydro-1H-pyrazino[1,2-a]pyrazin-2(6H)-yl)pyridin-3-yl)pyrazolo[1,5-a]pyrimidine-3-carboxamide] | +++ (Compounds with a Cisplatin sensitization value of <0.02 μM are marked with “+++.”)
20 | CC(C)(C)NC(=O)C1CCN(c2c(F)cncc2NC(=O)c2c(N)nn3cc(F)cnc23)CC1 [I-G-19, 2-amino-N-(4-(4-(tert-butylcarbamoyl)piperidin-1-yl)-5-fluoropyridin-3-yl)-6-fluoropyrazolo[1,5-a]pyrimidine-3-carboxamide] | ++ (Compounds with a Cisplatin sensitization value >0.02 μM but <0.2 μM are marked with “++.”)
21 | CS(=O)(=O)N1CCN(c2ccncc2NC(=O)c2c(N)nn3cc(F)cnc23)CC1 [I-N-178, 2-amino-6-fluoro-N-(4-(4-(methylsulfonyl)piperazin-1-yl)pyridin-3-yl)pyrazolo[1,5-a]pyrimidine-3-carboxamide] | +++ (Compounds with a Cisplatin sensitization value of <0.02 μM are marked with “+++.”)
22 | CN1CCCN(C(=O)C2CCN(c3c(F)cncc3NC(=O)c3c(N)nn4cc(F)cnc34)CC2)CC1 [I-G-6, 2-amino-6-fluoro-N-(5-fluoro-4-(4-(4-methyl-1,4-diazepane-1-carbonyl)piperidin-1-yl)pyridin-3-yl)pyrazolo[1,5-a]pyrimidine-3-carboxamide] | +++ (Compounds with a Cisplatin sensitization value of <0.02 μM are marked with “+++.”)
23 | Nc1nn2cc(Cl)cnc2c1C(=O)Nc1cnccc1N1CCN2CCC[C@@H]2C1 [I-N-65, (R)-2-amino-6-chloro-N-(4-(hexahydropyrrolo[1,2-a]pyrazin-2(1H)-yl)pyridin-3-yl)pyrazolo[1,5-a]pyrimidine-3-carboxamide] | + (Compounds with a Cisplatin sensitization value >0.2 μM but <5 μM are marked with “+.”)
24 | Nc1nn2cc(Cl)cnc2c1C(=O)Nc1cnccc1N1CCC(N2CC[S+]([O-])CC2)CC1 [I-N-100, 2-amino-6-chloro-N-(4-(4-(1-oxidothiomorpholino)piperidin-1-yl)pyridin-3-yl)pyrazolo[1,5-a]pyrimidine-3-carboxamide] | ++ (Compounds with a Cisplatin sensitization value >0.02 μM but <0.2 μM are marked with “++.”)
25 | Nc1nn2cc(F)cnc2c1C(=O)Nc1cnccc1N1CCC(C(=O)N2CCC2)CC1 [I-G-77, 2-amino-N-(4-(4-(azetidine-1-carbonyl)piperidin-1-yl)pyridin-3-yl)-6-fluoropyrazolo[1,5-a]pyrimidine-3-carboxamide] | +++ (Compounds with a Cisplatin sensitization value of <0.02 μM are marked with “+++.”)
